How the values were obtained:
T47D cells = experiment: XTT assay for cell viability, T47D cells; type: cell-based; conditions: Homo sapiens, read-out: inhibition of T47D cell proliferation, IC50
Protocol: (§1) Using a commercial kit from Sigma Aldrich (Catalog #X34251) and following its protocol, PC3 cells in the log phase of growth were employed and seeded at an optimal density of 1000 cell/well on to 96 well plates and incubated for 24 hours followed by the addition of compounds of formula (I) in serial dilutions. Compound dilutions were made in DMSO. The cells were incubated with the compounds of formula (I) for 96 hours and XTT tetrazolium dye (Sigma, USA) was subsequently added and incubated at 37° C. After the color formation, absorbance was measured at 465 nm in a Spectramax® Gemini spectrophotometer. EC50 values were calculated using a sigmoidal dose response curve fit in GraphPad Prism® v5 software. The tested compounds of formula (I) which caused inhibition of PC3 cell proliferation as determined by this assay protocol are shown in Table 2.
(§2) XTT assays for cell viability were also determined in U87MG, BT474 cells and T47D cells, in a similar manner to the protocol described above. The compounds cause inhibition of U87MG, BT474 and T47D cell proliferation as determined by these assays. For example, the compounds of Examples 3 and 7 caused inhibition of U87MG, BT474 and T47D cell proliferation with IC50 values<600 nM.

U87MG cells = experiment: XTT assay for cell viability, U87MG cells; type: cell-based; conditions: Homo sapiens, U-87 MG, read-out: inhibition of U87MG cell proliferation, IC50
Protocol: as §1, §2

PI3Kα mutation H1047R = PI3Kα mutation H1047R (Homo sapiens, UniProt P42336, H1047R); experiment: PI3 Kinase TR-FRET assay, PI3Kα mutation H1047R; type: biochemical; conditions: read-out: inhibition of PI3Kα mutation H1047R, IC50
PI3Kα mutation H1047R, sequence (P42336 whole entry H1047R, the tested form may be a part, canonical isoform): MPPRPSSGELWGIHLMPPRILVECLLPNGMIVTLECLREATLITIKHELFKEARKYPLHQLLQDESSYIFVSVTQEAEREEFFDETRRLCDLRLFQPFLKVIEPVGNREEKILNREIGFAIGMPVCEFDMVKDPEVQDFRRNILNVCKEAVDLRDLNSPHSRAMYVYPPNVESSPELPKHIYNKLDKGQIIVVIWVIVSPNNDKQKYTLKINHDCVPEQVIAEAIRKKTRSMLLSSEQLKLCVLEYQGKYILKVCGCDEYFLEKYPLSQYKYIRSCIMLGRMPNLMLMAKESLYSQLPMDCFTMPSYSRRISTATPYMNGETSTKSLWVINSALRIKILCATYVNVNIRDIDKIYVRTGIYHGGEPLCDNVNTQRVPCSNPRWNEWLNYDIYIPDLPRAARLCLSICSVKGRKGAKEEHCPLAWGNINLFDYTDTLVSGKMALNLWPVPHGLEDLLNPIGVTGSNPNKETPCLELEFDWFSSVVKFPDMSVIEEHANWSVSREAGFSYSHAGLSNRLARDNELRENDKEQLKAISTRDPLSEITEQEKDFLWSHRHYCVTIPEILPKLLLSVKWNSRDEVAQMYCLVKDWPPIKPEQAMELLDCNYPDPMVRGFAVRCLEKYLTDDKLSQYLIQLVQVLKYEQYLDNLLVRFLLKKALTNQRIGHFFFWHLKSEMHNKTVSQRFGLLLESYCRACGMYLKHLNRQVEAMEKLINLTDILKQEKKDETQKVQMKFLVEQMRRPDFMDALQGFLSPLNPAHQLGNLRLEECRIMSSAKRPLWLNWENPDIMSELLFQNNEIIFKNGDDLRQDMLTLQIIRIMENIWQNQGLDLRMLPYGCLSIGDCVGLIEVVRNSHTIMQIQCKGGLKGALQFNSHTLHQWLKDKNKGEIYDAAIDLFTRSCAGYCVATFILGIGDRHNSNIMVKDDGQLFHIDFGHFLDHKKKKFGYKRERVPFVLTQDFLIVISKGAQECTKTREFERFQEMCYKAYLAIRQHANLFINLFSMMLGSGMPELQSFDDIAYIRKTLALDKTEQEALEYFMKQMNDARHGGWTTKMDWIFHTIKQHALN
PI3Kα mutation H1047R, sequence (P27986 whole entry partner, the tested form may be a part, canonical isoform): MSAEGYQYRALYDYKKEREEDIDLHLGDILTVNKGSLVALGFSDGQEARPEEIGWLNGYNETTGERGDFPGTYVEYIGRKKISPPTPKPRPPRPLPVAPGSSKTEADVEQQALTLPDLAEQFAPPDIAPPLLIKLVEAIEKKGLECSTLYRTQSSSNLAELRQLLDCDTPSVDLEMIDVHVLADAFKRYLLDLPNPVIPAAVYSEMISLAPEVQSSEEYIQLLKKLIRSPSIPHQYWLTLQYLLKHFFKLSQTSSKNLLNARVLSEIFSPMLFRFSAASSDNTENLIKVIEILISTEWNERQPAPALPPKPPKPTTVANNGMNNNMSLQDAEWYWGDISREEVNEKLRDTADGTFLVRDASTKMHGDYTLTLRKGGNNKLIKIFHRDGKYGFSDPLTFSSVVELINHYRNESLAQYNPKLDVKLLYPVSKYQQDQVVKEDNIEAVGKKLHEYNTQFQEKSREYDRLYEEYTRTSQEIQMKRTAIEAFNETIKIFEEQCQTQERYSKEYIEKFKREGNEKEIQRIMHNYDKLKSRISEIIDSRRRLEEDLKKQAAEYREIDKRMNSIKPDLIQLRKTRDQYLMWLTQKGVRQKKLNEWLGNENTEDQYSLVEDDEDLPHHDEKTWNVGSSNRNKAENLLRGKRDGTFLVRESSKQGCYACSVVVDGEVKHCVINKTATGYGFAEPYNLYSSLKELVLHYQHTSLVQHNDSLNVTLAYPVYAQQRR
Protocol: (§3) The ability of compounds of the invention to inhibit PI3K activity was determined in a homogeneous TR-FRET assay using a PI3K assay kit (Millipore, USA; cat #33-016) according to manufacturer's instructions. PI3-Kinases (isoforms α, β, γ and δ) catalyze the phosphorylation of phosphatidylinositol, PIP2 to PIP3 in the presence of ATP and Mg^2+. The PIP3 product is detected by displacement of biotin-PIP3 from an energy transfer complex consisting of Europium labeled anti-GST monoclonal antibody, a GST-tagged PH domain, biotinylated PIP3 and Streptavidin-APC. Excitation of Europium in the complex results in an energy transfer to the APC and a fluorescence emission at 665 nm. The PIP3 product displaces biotin-PIP3 from the complex resulting in a loss of energy transfer and thus a decrease in signal.
(§4) To test for the ability of compounds to inhibit the activity of PI3Kα (wild-type), exemplary compounds of formula (I) were dissolved in DMSO and directly distributed into 384-well plates at a volume of 0.5 μL. 14.5 μL of P110/P85α/PIP2 mixture in buffer (obtained from the Millipore kit) containing MgCl2 (40 mM) and DTT (5 mM) was added to compound wells and incubated for 60 minutes at room temperature. P110/P85α was expressed in SF9 insect cells and purified nickel column extraction. Five ng of wild-type P110/P85α was used in the assay. The kinase reaction was started by the addition of ATP. The assay concentrations of both PIP2 and ATP were 10 μM. The reaction mixture was incubated for 30 minutes at room temperature and was terminated by the addition of stop mix and detection mix. Fluorescence was measured at 615 and 665 nm upon excitation at 340 nm in a Victor™ V5 fluorometer (Perkin Elmer, USA). The fluorescence emission ratio at 665 to 615 nm, proportional to the kinase activity, was plotted against the compound concentration to generate dose-response curves and IC50 values were determined using GraphPad Prism® 5 software.
(§5) The activity of PI3Kα mutations H1047R and E545K were assayed in a similar manner to the assay protocol described above for PI3Kα (wild type). The compounds of formula (I) caused inhibition of PI3Kα mutations H1047R (a mutation associated with breast and gastric cancers) and E545K (a mutation associated with colorectal tumors, glioblastomas, gastric cancers, breast cancers, and lung cancers). For example, each of the compounds of Example 3, 7, 21, 47, 48 and 49 caused inhibition of each of the PI3Kα mutations H1047R and E545K with IC50 values<50 nM.

PI3 kinase isoform δ = PI3 kinase isoform δ (Homo sapiens, UniProt O00329); experiment: PI3 Kinase TR-FRET assay, isoform δ; type: biochemical; conditions: read-out: inhibition of PI3 kinase isoform δ, IC50
PI3 kinase isoform δ, sequence (O00329 whole entry, canonical isoform): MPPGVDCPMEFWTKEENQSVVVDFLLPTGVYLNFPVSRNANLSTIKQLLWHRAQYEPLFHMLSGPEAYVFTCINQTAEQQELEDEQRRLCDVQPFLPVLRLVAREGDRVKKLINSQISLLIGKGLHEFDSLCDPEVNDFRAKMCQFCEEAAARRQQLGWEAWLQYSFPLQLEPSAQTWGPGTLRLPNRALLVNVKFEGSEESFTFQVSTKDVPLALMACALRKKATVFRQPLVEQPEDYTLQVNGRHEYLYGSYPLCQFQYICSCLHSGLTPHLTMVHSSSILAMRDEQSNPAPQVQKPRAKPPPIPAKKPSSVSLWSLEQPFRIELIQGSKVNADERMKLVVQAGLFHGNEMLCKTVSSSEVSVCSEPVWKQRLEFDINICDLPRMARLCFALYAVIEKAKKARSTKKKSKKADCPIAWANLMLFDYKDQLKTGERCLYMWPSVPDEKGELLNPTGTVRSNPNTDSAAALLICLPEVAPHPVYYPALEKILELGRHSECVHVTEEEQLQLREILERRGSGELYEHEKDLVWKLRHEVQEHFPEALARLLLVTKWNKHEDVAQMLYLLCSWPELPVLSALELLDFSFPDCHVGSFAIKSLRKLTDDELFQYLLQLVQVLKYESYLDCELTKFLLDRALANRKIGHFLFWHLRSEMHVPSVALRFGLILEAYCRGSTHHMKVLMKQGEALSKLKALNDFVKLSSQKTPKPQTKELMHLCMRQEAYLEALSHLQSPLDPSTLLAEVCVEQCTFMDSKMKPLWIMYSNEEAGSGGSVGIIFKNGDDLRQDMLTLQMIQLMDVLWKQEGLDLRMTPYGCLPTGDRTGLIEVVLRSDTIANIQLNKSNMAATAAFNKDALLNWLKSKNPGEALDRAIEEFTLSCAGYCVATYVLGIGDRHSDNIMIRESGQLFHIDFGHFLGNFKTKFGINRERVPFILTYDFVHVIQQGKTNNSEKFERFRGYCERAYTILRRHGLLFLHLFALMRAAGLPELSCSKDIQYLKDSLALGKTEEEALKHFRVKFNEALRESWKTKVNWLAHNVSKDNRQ
PI3 kinase isoform δ, sequence (P27986 whole entry partner, canonical isoform): as the sequence (P27986 whole entry partner, the tested form may be a part, canonical isoform) above
Protocol: as §3, §4
The activity of PI3 kinase isoforms β, γ and δ were assayed in a similar manner to the assay protocol described above for PI3Kα, by substituting the appropriate p110/p85 isoform for the p110α/p85α. Compounds of formula (I) caused inhibition of PI3 kinase isoforms β, γ and δ as determined by these assays. For example, the compounds of Examples 3 and 21 each caused inhibition of PI3 kinase isoform β with IC50 values<500 nM. The compounds of Examples 3, 7, 21, 47, 48 and 49 each caused inhibition of PI3 kinase isoform γ with IC50 values<500 nM. The compounds of Example 3, 7, 47, 48, and 49 caused inhibition of PI3 kinase isoform δ with IC50 values<1 μM.

PI3Kα mutation E545K = PI3Kα mutation E545K (Homo sapiens, UniProt P42336, E545K); experiment: PI3 Kinase TR-FRET assay, PI3Kα mutation E545K; type: biochemical; conditions: read-out: inhibition of PI3Kα mutation E545K, IC50
PI3Kα mutation E545K, sequence (P42336 whole entry E545K): as the sequence (P42336 whole entry H1047R, the tested form may be a part, canonical isoform) above, with E545K, R1047H counted along it
PI3Kα mutation E545K, sequence (P27986 whole entry partner): as the sequence (P27986 whole entry partner, the tested form may be a part, canonical isoform) above
Protocol: as §3, §4, §5

SMILES | IC50 (T47D cells) | IC50 (U87MG cells) | IC50 (PI3Kα mutation H1047R) | IC50 (PI3 kinase isoform δ) | IC50 (PI3Kα mutation E545K)
CC(=O)Nc1cccc(-c2cnc3c(N4CCOCC4)nc(-c4cnc(N)nc4)nc3c2)c1 [Example 3, N-(3-(2-(2-Aminopyrimidin-5-yl)-4-morpholinopyrido[3,2-d]pyrimidin-7-yl)-phenyl)acetamide] | < 600 nM | < 600 nM | < 50 nM | < 1000 nM | < 50 nM
Nc1ncc(-c2nc(N3CCOCC3)c3ncc(-c4cccc(NC(=O)C5CC5)c4)cc3n2)cn1 [Example 7, N-(3-(2-(2-Aminopyrimidin-5-yl)-4-morpholinopyrido[3,2-d]pyrimidin-7-yl)-phenyl)cyclopropanecarboxamide] | < 600 nM | < 600 nM | < 50 nM | < 1000 nM | < 50 nM
